Consider nine compounds from patent publication EP0240630A2, “Treatment of skin of over androgenicity using compositions containing pregnenolone” (priority 1986, dated 1987).

The test system of data set [1] is flank organ. The settings on record: topical application, graded doses, 5 days/week for 2 weeks; cited from earlier work.
The nature of data set [2]: Solubility in formulation vehicles. Format: physicochemical. The source says:
With regard to formulation for use with humans, because pregnenolone is insoluble in water, most aqueous base vehicles or carriers are not useful in the invention. Vehicles with a high content of alcohols, such as isopropanol or mixtures of alcohols with longer (C₄-C₁₀) alkane or alkene chains, in which pregnenolone is soluble, would afford a suitable base for the formulation as liquid, gel or cream. Glycerol may be added in the preparation as an emollient. Glycerol is hygroscopic; it keeps the skin surface from drying. Other additions of moisturizers or perfumes as known in the art are compatible with pregnenolone.

Data set [3] has as its system 3β-hydroxysteroid dehydrogenase Δ^4-5-isomerase (3βHSD). The data set can be described thus: Inhibition of 3βHSD conversion of 3H-DHA in rat preputial gland homogenate (TLC/scintillation counting). It is filed as biochemical. The settings on record: rat preputial gland homogenate, 1,2-³H-DHA with 100 nmoles DHA, 37°C; range of four separate incubations. The procedure: To assess the androgen inhibiting activity of pregnenolone, rat preputial gland was employed to investigate the in vitro androgenic action of DHA. […] A pair of the glands are situated in the prepuce of the rate of either sex weighing between 125-200 mg in an average 200 g rat, being slightly larger in the male animal. The animals employed were female Sprague-Dawley rats, 10-12 weeks old and weighing 225-300 g.
The experimental format, stated broadly, was to excise preputial glands from rats and prepare a homogenate therefrom. A predetermined amount of homogenate (the sample) was then spiked with radiolabeled (with ³H) DHA, in the presence or absence of pregnenolone, and the sample was incubated. […] The metabolites were quantitated by removal from the thin layer plate and counting in a scintillation counter. By determining the extent of metabolite formation, the extent of inhibition of 3βHSD could be correspondingly determined. […]
Experiments were initially conducted to ensure that DHA and its metabolites could be separated chromatographically. […] The position of the steroid can be readily traced with this method. […] Elution and quantitative evaluation of steroids can be effected after removal of the iodine. […] For quantitation the plates were then scraped in 1 cm sections for radioassay of ³H in a Packard Tri- Carb liquid scintillation counter. […]

Data set [4] deals with acne vulgaris. It is filed as in vivo, human. The protocol:
The following experiment was conducted and is a typical trial. In a double-blind clinical trial 23 patients with acne vulgaris volunteered to participate. Fifteen patients (11 females and 4 males) were given a 1% solution of pregnenolone dissolved in isopropanol containing 1% glycerol, and 8 patients (5 females and 3 males) were given a 1% solution of glycerol in isopropanol. Neither the patients nor the attending dermatologist knew whether or not the dispensed solution contained pregnenolone. The patients were instructed to stop using their previous medications for two weeks and then to apply the given solution to their faces twice daily. They were reexamined biweekly.

Data set [5] relates to 3βHSD. The data set can be described thus: In vivo metabolism of injected 1,2-3H-DHA in DHA-stimulated hamster flank organs after topical inhibitor. Also noted: species or system Syrian Golden Hamsters. The settings on record: female hamsters, pregnenolone topical for 3 days; 1 hour after intracardial ³H-DHA. The source says: The effects of hormones and hormonally active substances on sebaceous glands can also be evaluated using the Syrian hamster flank organs as an animal model. The results of experiments using hamsters are valuable inasmuch as they can provide in vivo confirmation of the in vitro experiments like those described above using rat preputial gland. The flank organs, also called the costovertebral spot or the costovertebral organ, are sebaceous structures located on each flank of the animal. Like the sebaceous glands of the human and the preputial gland of the rate they are androgen dependent (Voigt and Hsia, 1973; Gomez and Frost, 1969; Frost and Gomez, 1973).
Hamster flank organs were accordingly used to test in vivo the androgenic inhibitory properties of pregnenolone.
Female Syrian Golden Hamsters were used in this experiment. […]
On the afternoon of day 3, an intracardial injection of 1,2-³H-DHA (5µCi/0.1 ml saline buffer solution) was given to both experimental groups anesthetized with ether. […] Each organ was then placed in a 16 mm x 150 mm test tube containing methanol and was homogenized, extracted and analyzed for steroid metabolites by separating the metabolites using thin layer chromatography as described above, scraping the thus separated metabolites from the thin layer plates, and quantitating using a scintillation counter. […]
Results are shown in Figure 2 expressed as DPM/mg tissue.

Data set [6] has as its system flank organs. Nature of the data set: Stimulation of female hamster flank organ growth by topical DHA. It is filed as in vivo, female hamsters. The conditions noted are these: 12 µg, 60 µg, 120 µg applied to the right side, 7 days/week for 6 weeks. The protocol:
Before testing the anti-androgenic properties of pregnenolone on hamster flank organs and relying on the results, a centrally important question therefore needed to be answered -- Could DHA be shown to stimulate growth in the flank organs? This question was answered by applying graded doses of DHA, 12 µg, 60 µg, 120 µg to the right side of female hamsters (5 hamsters/group), for 7 days/week for 6 weeks.

Setting [7] is: 1% pregnenolone in isopropanol containing 1% glycerol, face, twice daily, twelve weeks, 15 patients.

Take `C[C@]12CC[C@H]3[C@@H](CCC4=CC(=O)CC[C@@]43C)[C@@H]1CC[C@@H]2O` [testosterone]: in data set [1], the “flank organ sebaceous gland growth and pigmentation” value is “unilateral stimulation of sebaceous gland growth and pigmentation”.

Consider `C[C@]12CC[C@@H](O)C[C@@H]1CC[C@@H]1[C@@H]2CC[C@]2(C)C(=O)CC[C@@H]12` [androsterone], for which, in data set [1], the “flank organ sebaceous gland growth and pigmentation” value was “did not cause flank organ growth or increased pigmentation”.

Take `C[C@]12CC[C@H](O)C[C@@H]1CC[C@@H]1[C@@H]2CC[C@]2(C)C(=O)CC[C@@H]12` [epiandrosterone]: the “flank organ sebaceous gland growth and pigmentation” value in data set [1] is on record as “did not cause flank organ growth or increased pigmentation”.

Turning to `C[C@]12CCC(=O)C[C@@H]1CC[C@@H]1[C@@H]2CC[C@]2(C)[C@@H](O)CC[C@@H]12` [DHT, dihydrotestosterone], the “flank organ sebaceous gland growth and pigmentation” value in data set [1] was “unilateral stimulation of sebaceous gland growth and pigmentation”.

For the compound `CC(=O)[C@H]1CC[C@H]2[C@@H]3CC=C4C[C@@H](O)CC[C@]4(C)[C@H]3CC[C@]12C` [pregnenolone, Δ⁵-pregnene-3β-o1-20-one], the “solubility in vehicles with a high content of alcohols” value in data set [2] (isopropanol or mixtures of alcohols with longer (C₄-C₁₀) alkane or alkene chains) was “soluble”. Further, in data set [2] (water), the solubility in water result is “insoluble”. The “inhibition of the 3βHSD for DHA (Δ⁴-3-keto product formed, relative to absence of the inhibitor)” value in data set [3] is given as 91-92%. For the same compound, in data set [4] (setting [7]), the “patients noted definite improvement, with reduction in the size and number of lesions” value stood at 33%; the “patients noted no change in lesions or oiliness” value was found to be 26%; the “patients noted reduction of oiliness” value was 13%; the “patients noted slight reduction of the number of lesions and a reduction in the oiliness of the skin” value is given as 26%. Moreover, the “patients showed marked reductions in skin oiliness and in pore size” value in data set [4] (1% pregnenolone in isopropanol containing 1% glycerol, twelve weeks, 15 patients) is recorded as “two”. In addition, the “patients' comparison with other medications used previously” value in data set [4] (claim of patients who had used other medications previously) was “more effective and more acceptable”. Further, the “irritation or discomfort caused by the topical application” value in data set [4] (human, in vivo) is given as “no complaint”. Moreover, in data set [5], the “formation of testosterone, DHT and androstanediol in flank organs, control versus treated” value is listed as “Control hamsters, not treated with inhibitor, show greater formation”.

As for `C[C@]12CCC(=O)C=C1CC[C@@H]1[C@@H]2CC[C@@]2(C)[C@H]1CC[C@]2(C)O` [methyltestosterone], the “flank organ sebaceous gland growth and pigmentation” value in data set [1] is “unilateral stimulation of sebaceous gland growth and pigmentation”.

On to `C[C@]12CCC(=O)C=C1CC[C@@H]1[C@@H]2CC[C@]2(C)C(=O)CC[C@@H]12` [androstenedione, Δ⁴-androstenedione], for which the “flank organ sebaceous gland growth and pigmentation” value in data set [1] is “unilateral stimulation of sebaceous gland growth and pigmentation”.

Consider `CC(=O)[C@H]1CC[C@H]2[C@@H]3CCC4=CC(=O)CC[C@]4(C)[C@H]3CC[C@]12C` [progesterone], for which the “flank organ sebaceous gland growth and pigmentation” value in data set [1] is given as “did not cause flank organ growth or increased pigmentation”.

Consider `C[C@]12CC[C@H](O)CC1=CC[C@@H]1[C@@H]2CC[C@]2(C)C(=O)CC[C@@H]12` [DHA, dehydroepiandrosterone], for which the “stimulation of flank organ growth” value in data set [6] is “stimulation of both flank organs”.
